Measurements taken from patent US5512549A, “Glucagon-like insulinotropic peptide analogs, compositions, and methods of use” (Eli Lilly and Company, priority 1994, dated 1996).
Each block holds one substance with its values, some of them ahead of it.

Tests used:
beagles [1] = assay: Dog I.V. Hyperglycemic (150 mg/dl) Clamp Test; format: in vivo; details: I.V. 1.0 μg/kg
Procedure: (§1) a) Hyperglycemic Clamp Studies
(§2) Experiments were conducted in overnight-fasted, conscious, adult (1-2 years of age) male and female beagles weighing 8-15 kg. At least ten days prior to the study, animals were anesthetized with isoflurane, and a cut-down was made in the left or right inguinal region. Silastic catheters were inserted into the femoral artery and the proximal caudal femoral vein and secured with 4-0 silk suture. The free ends of the catheters were passed subcutaneously to the back using a trocar needle. The catheters were then filled with a glycerol/heparin solution (3:1, v/v; final heparin concentration of 250 KIU/ml), and the free ends were knotted and placed in a subcutaneous pocket to allow complete closure of the skin. Keflex® was administered both pre-operatively (20 mg/kg, IV and 20 mg/kg, I.M.) and post-operatively (250 mg, p.o. once daily for seven days) to prevent infections. Torbugesic (1.5 mg/kg, I.M.) was administered post-operativelyto control pain.
(§3) Blood was drawn just prior to the study day to determine the health of the animal. Only animals with hematocrits above 38% and leukocyte counts below 16,000/mm^3 were used.
(§4) The afternoon before the experiment, the free ends of the catheters were exteriorized from the subcutaneous pocket through a small incision made under local anesthesia (2% lidocaine), and the dog was fitted with a tether system jacket and collar assembly.
(§5) The morning of the experiment, the contents of the catheters were aspirated, the catheters were flushed with saline, and extension lines (protected by a stainless steel tether) were attached to the catheters. On mornings of IV injection experiments, an over-the-needle, teflon catheter was inserted percutaneously into a cephalic vein in preparation for the administration of an IV bolus of test substance. The dog was placed in a metabolic cage, and the catheter extension lines and tether were attached to a swivel system to allow the dog to move freely about the cage. At this time (-60 minutes), an exogenous infusion of glucose (50% w/v in water) was begun through the chronic venous catheter. Glucose was infused in a descending stepwise fashion over the first six minutes of the study to rapidly raise the plasma glucose concentration to 150 mg/dl. Plasma glucose concentrations were determined every 2.5 to 7.5 minutes throughout the remainder of the study, and the glucose infusion rate was adjusted appropriately to maintain the plasma glucose concentration at 150 mg/dl.
(§6) Sixty minutes after the start of the glucose infusion (time 0), test substance was administered either intravenously (1.0, 2.9, 5.0 or 10.0 μg/kg; dose dissolved in 2 ml of saline containing 0.3% dog albumin, w/v) through the previously inserted teflon catheter or subcutaneously (10 μg/kg; 150 μM in phosphate buffered saline) in the dorsal aspect of the neck.
(§7) Arterial blood samples (3.5 ml) were taken at -30, -15, 0, 2.5, 5, 7.5, 10, 12.5, 15, 20, 30, 45, 60, 75, 90, 105 and 120 minutes during the IV studies and at -30, -15, 0, 3, 6, 9, 12, 15, 20, 30, 45, 60, 75, 90, 105 and 120 minutes during the SC studies. Samples were collected in vacuum blood collection tubes containing disodium EDTA and immediately placed on ice. To prevent proteolytic cleavage of GLP-1(7-37) in the plasma samples, 1.5 ml of the EDTA containing blood were transferred to a polypropylene tube containing 40 μl of aprotinin (10,000 KIU/ml) and mixed well. The samples were centrifuged, and the resulting plasma was transferred to polypropylene test tubes and stored on ice for the duration of the study.
(§8) At the conclusion of the experiment, the animal was anesthetized (isoflurane); the catheters were flushed with fresh saline and filled with the glycerol/heparin mixture; the free ends of the catheters were knotted and placed subcutaneously as described earlier; and antibiotic was administered (300 mg Keflex®, I.M.). […]

[2] = system: Sprague Dawley or Zucker Diabetic Fatty rats; assay: Rat IV Glucose (1 g/kg) Tolerance Test; format: in vivo; details: for Insulin Change AUC: 0-15 min
Procedure: a) Glucose Tolerance Tests
Experiments were conducted in overnight-fasted, conscious, male Sprague Dawley (Charles River) or Zucker Diabetic Fatty (Genetic Models, Inc.) rats weighing approximately 250 (Sprague Dawley rats) or 300 (Zucker Diabetic Fatty rats) grams. Four to five days prior the study, rats were anesthetized with isoflurane, and a polyethylene (PE50) catheter was inserted into the right jugular vein. The catheter was secured with a wound clip, filled with saline containing heparin (2% sodium heparin), and closed with a small stainless steel plug.
After a sixteen-hour fast, twelve chronically cannulated rats were separated into four groups of three rats per group. 0.4 ml of blood was taken from the tail vein, collected into a microtainer tube containing lithium heparin, and immediately placed on ice (zero minute sample). A glucose bolus (1.0 g/kg; 50% glucose (w/v) in water) was administered via the indwelling jugular cannula, and the cannula was rinsed with 200 μl of saline. Twenty seconds later a bolus of test substance 100 μl/100 g body weight of either vehicle (saline containing 0.3% (w/v) bovine serum albumin) or vehicle containing analog! was administered through the jugular cannula, and the cannula was rinsed as before. Rats were bled from the tail again at 2, 5, 10, 20 and 30 minutes after the administration of the glucose bolus, and the samples were treated as described above. At the end of the experiment, blood samples were centrifuged, and the plasma was collected.
Plasma glucose concentrations were determined the day of the experiment using a coupled hexokinase procedure in a clinical chemistry analyzer. Plasma for insulin determinations were diluted with zero calibrator and frozen at -20° C. until time for analysis. Insulin concentrations were determined using a commercial radioimmunoassay kit with rat insulin as the standard.
Insulin change (the change in insulin from the baseline value) was calculated as the difference between the insulin concentration at time t and the insulin concentration at zero time. The area under the insulin change curve was calculated using the trapezoidal rule. Plasma glucose change (the increase in plasma glucose above the baseline value) was calculated as the difference between the plasma glucose concentration at time t and the plasma glucose concentration at zero time. The area under the plasma glucose change curve was calculated using the trapezoidal rule. Values are listed as the mean ± the standard error of the mean (SEM).

beagles [3] = assay: Dog S.C. Hyperglycemic (150 mg/dl) Clamp Test; format: in vivo; details: S.C. 10 μg/kg
Procedure: as §1, §2, §3, §4, §5, §6, §7, §8

rat GLP-1 receptor = target: T1, rat GLP-1 receptor (Rattus norvegicus, UniProt P32301); assay: cAMP Assay (in vitro receptor binding assay) on membrane preparation; format: biochemical; details: cAMP production, CHO membranes expressing rat GLP-1 receptor; mean ± spread
T1 construct: expressed in transfected cells; host or cells: CHO DXB-11 (Chinese hamster ovary) cells, used as a membrane preparation
T1 sequence (P32301 22-463): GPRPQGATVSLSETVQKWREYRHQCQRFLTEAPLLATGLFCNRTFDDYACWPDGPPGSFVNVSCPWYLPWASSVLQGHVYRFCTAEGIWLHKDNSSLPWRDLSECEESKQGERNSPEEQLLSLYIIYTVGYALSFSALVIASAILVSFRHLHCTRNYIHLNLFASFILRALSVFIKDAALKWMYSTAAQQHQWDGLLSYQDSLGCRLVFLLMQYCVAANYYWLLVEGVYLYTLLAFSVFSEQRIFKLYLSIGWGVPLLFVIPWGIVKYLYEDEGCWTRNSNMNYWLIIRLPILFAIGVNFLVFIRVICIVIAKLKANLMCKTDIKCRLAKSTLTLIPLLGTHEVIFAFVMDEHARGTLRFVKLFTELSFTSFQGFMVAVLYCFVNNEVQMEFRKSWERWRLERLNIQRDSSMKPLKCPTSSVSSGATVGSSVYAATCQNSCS
Procedure: A sample of the membrane preparation was preincubated with a test compound or a control compound in buffer (25 mM HEPES, 0.2% (w/v) BSA, pH 7.6) at 32° C. for 10 minutes. Reaction buffer (final concentration: 25 mM HEPES, 0.2% (w/v) BSA, 2.6 mM Mg, 0.8 mMATP, 0.1 mM GTP, 5 mM creatine phosphate, creatine kinase 50 U/ml, 0.2 mM IBMX, pH 7.6) was added and incubated for an additional 30 minutes. Incubations were stopped by adding 10 mM EDTA.
Production of cAMP was assayed using a fluorescent tracer-immuno assay method. In brief, after the incubation was stopped, fluorescent tracer (cAMP-b phycoerythrin conjugate) was added followed by the addition of affinity purified anti-cAMP rabbit antiserum. After incubation at room temperature for 45 minutes, anti-rabbit IgG coated assay beads were added and incubated for an additional 15 minutes. Plates were then evacuated and read on a Pandex PFCIA reader.
Fluorescent intensity values were correlated to rate of cAMP production (pmol/min/mg).

[4] = 120 minute test period, mean ± SEM

Substance: GLP-1(7-36)NH2
GIR Change AUC (beagles [1]; 0-60 min, mean ± SEM): 414 ± 73 mg/kg
Insulin Change AUC (beagles [1]; 0-60 min, mean ± SEM): 32 ± 8 ng·min/mL
Max Insulin Change (beagles [1]; [4]): 3.4 ± 0.6 ng/mL
Duration of Insulin Effect (beagles [1]; time average insulin change consistently ≥0.5 ng/ml): 2.5 min
Insulin Change at 10 min ([2]; IV dose 0.2 mg/kg): 1.8 ng/mL
Max Insulin Change ([2]; IV dose 0.2 mg/kg): 4.0 ng/mL
Insulin Change AUC ([2]; IV dose 0.2 mg/kg): 34 ± 4 ng·min/mL
Insulin Change at 10 min ([2]; IV dose 0.3 mg/kg): 2.2 ng/mL
Max Insulin Change ([2]; IV dose 0.3 mg/kg): 6.1 ng/mL
Insulin Change AUC ([2]; IV dose 0.3 mg/kg): 50 ± 13 ng·min/mL
Insulin Change at 10 min ([2]; IV dose 0.4 mg/kg): 3.8 ng/mL
Max Insulin Change ([2]; IV dose 0.4 mg/kg): 7.7 ng/mL
Insulin Change AUC ([2]; IV dose 0.4 mg/kg): 73 ± 14 ng·min/mL
Insulin Change at 10 min ([2]; IV dose 0.6 mg/kg): 3.4 ng/mL
Max Insulin Change ([2]; IV dose 0.6 mg/kg): 7.7 ng/mL
Insulin Change AUC ([2]; IV dose 0.6 mg/kg): 67 ± 11 ng·min/mL
Insulin Change at 10 min ([2]; IV dose 0.8 mg/kg): 4.1 ng/mL
Max Insulin Change ([2]; IV dose 0.8 mg/kg): 11.3 ng/mL
Insulin Change AUC ([2]; IV dose 0.8 mg/kg): 97 ± 25 ng·min/mL
Insulin Change at 10 min ([2]; IV dose 1.0 mg/kg): 3.9 ng/mL
Max Insulin Change ([2]; IV dose 1.0 mg/kg): 11.4 ng/mL
Insulin Change AUC ([2]; IV dose 1.0 mg/kg): 89 ± 16 ng·min/mL
Insulin Change at 10 min ([2]; IV dose 2.0 mg/kg): 4.9 ng/mL
Max Insulin Change ([2]; IV dose 2.0 mg/kg): 11.7 ng/mL

Substance: Arg^26 -Lys^34 -N^ε -octanoyl-GLP-1(8-37)OH [Arg^26-Lys^34-N^ε-octanoyl-GLP-1(8-37)OH]
GIR Change AUC (beagles [3]; 0-120 min, mean ± SEM): 659 ± 182 mg/kg
Insulin Change AUC (beagles [3]; 0-120 min, mean ± SEM): 11 ± 26 ng·min/mL
Max Insulin Change (beagles [3]; [4]): 0.6 ± 0.4 ng/mL
Duration of Insulin Effect (beagles [3]; time average insulin change consistently >0.5 ng/ml): not active

% Relative Potency (rat GLP-1 receptor): 108.2 ± 22.4%
Substance: N- Imidazole-α,α-dimethyl-acetyl!GLP-1 (8-37)OH [α,α-imidazoacetyl-GLP-1(8-37)OH]
